These molecules were tested against T1, Human KLK1 (Homo sapiens, UniProt P06870) (assay: Determination of the IC50 for KLK1 (fluorogenic substrate H-DVal-Leu-Arg-AFC)). Details: 37° C.
T1 construct: purchased Callbiochem (Calbiochem)
Type: biochemical
Procedure, shortened: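 Human KLK1 incubated at 37 °C with fluorogenic substrate H-DVal-Leu-Arg-AFC and a range of test compound concentrations. Residual activity was taken as initial reaction rate from absorbance change at 410 nm, and the IC50 derived from it.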

T1 sequence (P06870 25-262): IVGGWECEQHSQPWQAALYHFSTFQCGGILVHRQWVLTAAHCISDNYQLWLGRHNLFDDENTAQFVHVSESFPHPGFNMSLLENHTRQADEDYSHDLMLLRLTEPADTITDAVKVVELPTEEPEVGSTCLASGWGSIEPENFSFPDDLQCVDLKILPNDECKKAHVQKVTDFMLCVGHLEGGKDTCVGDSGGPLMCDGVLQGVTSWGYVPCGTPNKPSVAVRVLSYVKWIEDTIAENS

Compared with `Nc1ccc(CNC(=O)[C@H](Cc2csc3ccccc23)NC(=O)[C@H]2CCCCN2)cn1` [Example 78, (R)-Piperidine-2-carboxylic acid {(S)-1-[(6-amino-pyridin-3-ylmethyl)-carbamoyl]-2-benzo[b]thiophen-3-yl-ethyl}-amide], `Nc1ccc(CNC(=O)[C@H](Cc2csc3ccccc23)NC(=O)c2cc3ccccc3[nH]2)cn1` [Example 335, 1H-Indole-2-carboxylic acid {(S)-1-[(6-amino-pyridin-3-ylmethyl)-carbamoyl]-2-benzo[b]thiophen-3-yl-ethyl}-amide] is 13-fold higher in IC50: 1.2 nM for the first, 15.8 nM for the second. The first is the more potent here.

Going from `CN1CCC[C@@H]1C(=O)N[C@@H](Cc1ccc(Cl)cc1)C(=O)NCc1ccc(N)nc1` [Example 93, (R)-1-Methyl-pyrrolidine-2-carboxylic acid [(S)-1-[(6-amino-pyridin-3-ylmethyl)-carbamoyl]-2-(4-chloro-phenyl)-ethyl]-amide] to `C[C@@H](C(=O)N[C@@H](Cc1ccc(F)cc1)C(=O)NCc1ccc(N)nc1)N1CCCCC1` [Example 375, (S)—N-[(S)-1-[(6-Amino-pyridin-3-ylmethyl)-carbamoyl]-2-(4-fluoro-phenyl)-ethyl]-2-piperidin-1-yl-propionamide], the IC50 rises from 0.85 nM to 4.9 nM (5.8-fold).

`CCC(C)[C@H](C(=O)N[C@@H](Cc1cc(F)cc(F)c1)C(=O)NCc1ccc(N)nc1)N(C)C` (stereo partly drawn) [Example 424, (R)-2-Dimethylamino-3-methyl-pentanoic acid [(S)-1-[(6-amino-pyridin-3-ylmethyl)-carbamoyl]-2-(3,5-difluoro-phenyl)-ethyl]-amide] and `CCC(C)[C@H](C(=O)N[C@@H](Cc1ccc(F)cc1)C(=O)NCc1ccc(N)nc1)N(C)C` (stereo partly drawn) [Example 182, (R)-2-Dimethylamino-3-methyl-pentanoic acid [(S)-1-[(6-amino-pyridin-3-ylmethyl)-carbamoyl]-2-(4-fluoro-phenyl)-ethyl]-amide] are within 1.5-fold of each other in IC50: 28 nM for the first, 21.2 nM for the second.

Compared with `COc1ccc2[nH]c(C(=O)N[C@@H](Cc3cccc(Cl)c3)C(=O)NCc3ccc(N)nc3)cc2c1` [Example 314, 5-Methoxy-1H-indole-2-carboxylic acid [(S)-1-[(6-amino-pyridin-3-ylmethyl)-carbamoyl]-2-(3-chloro-phenyl)-ethyl]-amide], `Cc1c[nH]c(C(=O)N[C@@H](Cc2cccc(Cl)c2)C(=O)NCc2ccc(N)nc2)c1` [Example 259, 4-Methyl-1H-pyrrole-2-carboxylic acid [(S)-1-[(6-amino-pyridin-3-ylmethyl)-carbamoyl]-2-(3-chloro-phenyl)-ethyl]-amide] is 5.5-fold higher in IC50: 15.6 nM for the first, 85.4 nM for the second.

First: C[C@H](C(=O)N[C@@H](Cc1ccc(Cl)c(Cl)c1)C(=O)NCc1ccc(N)nc1)N1CCCCC1 [Example 402, (R)—N-[(S)-1-[(6-Amino-pyridin-3-ylmethyl)-carbamoyl]-2-(3,4-dichloro-phenyl)-ethyl]-2-piperidin-1-yl-propionamide]
Second: CC(C)N(C)[C@@H](C)C(=O)N[C@@H](Cc1ccc(Cl)c(Cl)c1)C(=O)NCc1ccc(N)nc1 [Example 401, (S)—N-[(S)-1-[(6-Amino-pyridin-3-ylmethyl)-carbamoyl]-2-(3,4-dichloro-phenyl)-ethyl]-2-(isopropyl-methyl-amino)-propionamide]
The IC50 of the first is 81-fold higher: 13 nM for the first, 0.16 nM for the second.

Going from `CN(C)[C@H](Cc1ccccc1)C(=O)N[C@@H](CC1CCCC2CCCCC21)C(=O)NCc1ccc(N)nc1` (stereo partly drawn) [Example 397, (R)—N-[(S)-1-[(6-Amino-pyridin-3-ylmethyl)-carbamoyl]-2-(decahydro-naphthalen-1-yl)-ethyl]-2-dimethylamino-3-phenyl-propionamide] to `CCN(C)[C@@H](CO)C(=O)N[C@@H](CC1CCCCC1)C(=O)NCc1ccc(N)nc1` [Example 387, (S)—N-{(S)-1-[(6-Amino-pyridin-3-ylmethyl)-carbamoyl]-2-cyclohexyl-ethyl}-2-(ethyl-methyl-amino)-3-hydroxy-propionamide], the IC50 rises from 44.2 nM to 170 nM (3.8-fold).

Compared with `CCC(C)[C@@H](C(=O)N[C@@H](Cc1ccc(F)c(F)c1)C(=O)NCc1ccc(N)nc1)N(C)C(C)C` (stereo partly drawn) [Example 353, (S)-2-(Isopropyl-methyl-amino)-3-methyl-pentanoic acid [(S)-1-[(6-amino-pyridin-3-ylmethyl)-carbamoyl]-2-(3,4-difluoro-phenyl)-ethyl]-amide], `CCC(C)[C@H](C(=O)N[C@@H](Cc1ccc(Cl)c(Cl)c1)C(=O)NCc1ccc(N)nc1)N(C)S(C)(=O)=O` (stereo partly drawn) [Example 8, (R)-2-(Methanesulfonyl-methyl-amino)-3-methyl-pentanoic acid [(S)-1-[(6-amino-pyridin-3-ylmethyl)-carbamoyl]-2-(3,4-dichloro-phenyl)-ethyl]-amide] is 4.6-fold lower in IC50: 7.8 nM for the first, 1.7 nM for the second. The second is the more potent here.

Going from `Cc1nc(N)ccc1CNC(=O)[C@H](Cc1ccc(F)c(F)c1)NC(=O)[C@@H](C)N1CCCCC1` [Example 431, (R)—N-[(S)-1-[(6-Amino-2-methyl-pyridin-3-ylmethyl)-carbamoyl]-2-(3,4-difluoro-phenyl)-ethyl]-2-piperidin-1-yl-propionamide] to `CC(C)N1CCC[C@@H]1C(=O)N[C@@H](Cc1ccccc1C(F)(F)F)C(=O)NCc1ccc(N)nc1` [Example 128, (R)-1-Isopropyl-pyrrolidine-2-carboxylic acid [(S)-1-[(6-amino-pyridin-3-ylmethyl)-carbamoyl]-2-(2-trifluoromethyl-phenyl)-ethyl]-amide], the IC50 falls from 50.6 nM to 7.6 nM (6.7-fold). The second is the more potent here.

Compared with `Nc1ccc(CNC(=O)[C@H](Cc2cccc3ccccc23)NC(=O)c2nc3ccccc3[nH]2)cn1` [Example 299, 1H-Benzoimidazole-2-carboxylic acid {(S)-1-[(6-amino-pyridin-3-ylmethyl)-carbamoyl]-2-naphthalen-1-yl-ethyl}-amide], `CCC(C)[C@@H](N)C(=O)N[C@@H](Cc1cccc2ccccc12)C(=O)NCc1cnc(N)c(C)c1` (stereo partly drawn) [Example 209, (R)-2-Amino-3-methyl-pentanoic acid {(S)-1-[(6-amino-5-methyl-pyridin-3-ylmethyl)-carbamoyl]-2-naphthalen-1-yl-ethyl}-amide] is 4.4-fold higher in IC50: 8.1 nM for the first, 36 nM for the second. The first is the more potent here.

Compared with `CCN(C)[C@@H](C)C(=O)N[C@@H](Cc1ccc(F)cc1)C(=O)NCc1ccc(N)nc1` [Example 367, (S)—N-[(S)-1-[(6-Amino-pyridin-3-ylmethyl)-carbamoyl]-2-(4-fluoro-phenyl)-ethyl]-2-(ethyl-methyl-amino)-propionamide], `CCN(CC)[C@@H](C)C(=O)N[C@@H](Cc1cccc(C)c1)C(=O)NCc1ccc(N)nc1` [Example 415, (S)—N-{(S)-1-[(6-Amino-pyridin-3-ylmethyl)-carbamoyl]-2-m-tolyl-ethyl}-2-diethylamino-propionamide] is 2-fold lower in IC50: 10.8 nM for the first, 5.3 nM for the second. The second is the more potent here.

First: Cc1cc[nH]c1C(=O)N[C@@H](Cc1ccc(Cl)c(Cl)c1)C(=O)NCc1ccc(N)nc1 [Example 264, 3-Methyl-1H-pyrrole-2-carboxylic acid [(S)-1-[(6-amino-pyridin-3-ylmethyl)-carbamoyl]-2-(3,4-dichloro-phenyl)-ethyl]-amide]
Second: COc1ccc(CN(C)CC(=O)N[C@@H](Cc2ccc(F)c(F)c2)C(=O)NCc2ccc(N)nc2)cc1 [Example 166, (S)—N-(6-Amino-pyridin-3-ylmethyl)-3-(3,4-difluoro-phenyl)-2-{2-[(4-methoxy-benzyl)-methyl-amino]-acetylamino}-propionamide]
The IC50 of the first is 230-fold lower: 3.1 nM for the first, 726 nM for the second. The first is the more potent here.

Source: patent publication US20100076015A1, “Aminopyridine Derivatives” (VANTIA LIMITED, priority 2008, published 2010)
